Results on 2 molecules are retold here after publication PMC8490515, “Neuromedin B receptor stimulation of Cav3.2 T-type Ca^2+ channels in primary sensory neurons mediates peripheral pain hypersensitivity” (Theranostics, 2021).

Test [1] relates to Nmb-induced mechanical hypersensitivity in mice. As to the kind of experiment: Nmb-induced mechanical hypersensitivity, effect of pretreatment (Figure 7C). It is filed as in vivo, mouse. The conditions noted are these: intra-TG KT-5720 2 nmol prior to 1 nmol Nmb; 1 h; n = 8 - 10. As for the experimental part:
Mice were housed on a 12 h light/dark cycle, maintained in a humidity- and temperature-controlled room with water available ad libitum and were acclimated to the experimenter for 2 d before the first behavioural observations. Experimenters were blinded to the treatment or genotypes of the mice. As described previously, [31], an Orofacial Stimulation Test (Ugo Basile, Italy) was used for the measurement of hypersensitivity to the mechanical stimulation of the trigeminal area. Briefly, the mice initially underwent one week of adaptation trainings after a 12 h fasting food period. Each mouse was then placed in a cage in which there was an Orofacial Stimulation Test system. […] The contact number and total duration of time the mouse spent acquiring the reward were analyzed with the ORO software.
For experiments that several time points are needed to be checked in 24 h, von Frey test was used, as orofacial stimulation test can be checked only once a day, [32]. […] Mechanical hypersensitivity was assessed as described in previous studies, [33]. In brief, the threshold was assessed with a set of von Frey hairs (0.02-2.56 g, Stoelting) applied to the whisker pad in an ascending series of trials, with three separate von Frey stimulations applied per series. The threshold was determined when mice moved their heads away briskly and strongly from at least one of the three stimuli. […]

For test [2], the system named is nociception and neurogenic inflammation. The settings on record: application of Nmb; ref [4], [5]; cited from earlier work. From the text: It has been well established that T-type channels promote Ca^2+ entry that disrupts the resting membrane potential and can modulate neuronal activity in the peripheral and central nervous systems, thus improving transmission efficiency. In the peripheral sensory neurons this low activation threshold property of T-type channels typically results in the amplification of sensory signals, increased afferent sensory transmission and, in particular, increased pain perception, [74].

The test system of test [3] is transient outward K^+ channel (IA). Description: Transient outward A-type K+ currents (IA) in TG neurons. It is filed as cell-based, mouse. The settings on record: 100 nM. As for the experimental part: (§1) All the procedures performed in this study were carried out in accordance with NIH guidelines and were approved by the Institutional Animal Care and Use Committee of Soochow University. TG neurons were dissociated as previously described, [23]. Briefly, TGs were harvested from 8- to 10-week-old ICR mice of either sex, cut into small pieces and treated with 2 mg/mL collagenase D (Roche) for 20 min followed by 1.5 mg/mL trypsin (Sigma) at 37 °C for 15 min. Cells were dissociated via gentle trituration with fire-polished sterilized Pasteur pipettes and centrifuged through a 15% BSA gradient to remove debris and nonneuronal cells. TG neurons were resuspended in neurobasal A (Thermo Fisher) supplemented with B27 (Thermo Fisher) and transferred onto Matrigel-coated coverslips. Patch clamp recordings were conducted 2 to 6 h after plating. In shRNA-treated knockdown experiments, TG cells were replated onto coverslips 48 h after infection.
(§2) Standard whole-cell recordings were made at room temperature (22-23 °C) as described previously, [25]. Recording electrodes were pulled from borosilicate glass microcapillary tubes (Sutter Instruments) and had resistances from 3 to 5 MΩ when filled with internal solution. Recordings were obtained using a MultiClamp 700B amplifier (Axon Instruments). […]

For test [4], the system named is high-voltage activated (HVA) Ca^2+ channels, L-type. Description: HVA / L-type Ca2+ channel currents in TG neurons. The test is classed as cell-based, mouse. As to the method:
as §1, §2

In test [5] the test system is mechanical hypersensitivity in mice. Description: von Frey test after intra-TG injection of Nmb. The test is classed as in vivo, mouse. As for the experimental part: Mice were housed on a 12 h light/dark cycle, maintained in a humidity- and temperature-controlled room with water available ad libitum and were acclimated to the experimenter for 2 d before the first behavioural observations. Experimenters were blinded to the treatment or genotypes of the mice. As described previously, [31], an Orofacial Stimulation Test (Ugo Basile, Italy) was used for the measurement of hypersensitivity to the mechanical stimulation of the trigeminal area. Briefly, the mice initially underwent one week of adaptation trainings after a 12 h fasting food period. Each mouse was then placed in a cage in which there was an Orofacial Stimulation Test system. After the mouse was given 10 min to familiarize itself with its environment, the drinking window was opened and the testing mouse was subsequently timed for 10 min to allow drinking the milk. The contact number and total duration of time the mouse spent acquiring the reward were analyzed with the ORO software.
For experiments that several time points are needed to be checked in 24 h, von Frey test was used, as orofacial stimulation test can be checked only once a day, [32]. For the von Frey test, the mice were placed in metal mesh boxes and allowed 30 min for habituation before examination. Mechanical hypersensitivity was assessed as described in previous studies, [33]. In brief, the threshold was assessed with a set of von Frey hairs (0.02-2.56 g, Stoelting) applied to the whisker pad in an ascending series of trials, with three separate von Frey stimulations applied per series. The threshold was determined when mice moved their heads away briskly and strongly from at least one of the three stimuli. Dixon's up-down method was used to determine the 50% probability of escape threshold. For thermal test, a heat stimulus was applied to the maxillary whisker pad skin by radiant heat (IITC Life Science). Heat sensitivity was expressed as head-withdrawal latency (HWL). The radiant heat intensity was adjusted so that basal HWL is between 10-15 s, with a cut-off of 18 s to prevent tissue damage. Chronic inflammatory pain was induced by subcutaneous injection of 20 μL of complete Freund's adjuvant (CFA) into the left side of the buccal pad. The drugs (Nmb, BIM23042, Z941, or TTA-P2) were applied through a percutaneous approach by injecting the TG with a 30 G needle inserted through the infraorbital foramen, infraorbital canal and foramen rotundum. The tip of the needle terminated at the medial part of the TG, and a volume of 5 μL reagent was slowly delivered, [34]. Mice received intra-TG injection of 5'-cholesteryl-modified and 6-FAM-modified Cav3.2 siRNA (Cav3.2-siRNA, 5 μg) or a scrambled negative control siRNA (NC-siRNA) (RiboBio, Guangzhou) 2 d after the CFA injection. siRNA was mixed with polyethyleneimine (PEI, Fermentas Inc.) for 10 min before being delivered. PEI was used as a delivery vehicle to prevent degradation and enhance cell membrane penetration of siRNAs, [36].

Turning to `CCCCCCOC(=O)[C@]1(O)C[C@@H]2O[C@@]1(C)n1c3ccccc3c3c4c(c5c6ccccc6n2c5c31)C(=O)NC4` [KT-5720], in test [1], the “effect on Nmb-induced mechanical hypersensitivity” value is “abolished”.
Consider Neuromedin B [Nmb], for which, in test [2], the “pro-nociceptive effects of Nmb” value is listed as “can induce pro-nociceptive effects”. For the same molecule, the “decrease of peak amplitude of IA” value in test [3] was 22.3 ± 3.9%. Further, the “decrease of L-type channel currents” value in test [4] (100 nM) is recorded as 19.6 ± 2.2%. For the same molecule, in test [4] (100 nM Nmb with 5 μM nifedipine), the “decrease of remaining HVA Ca2+ channel currents” value was 1.3 ± 0.6%. The acute mechanical hypersensitivity result in test [5] (intra-TG 0.1 nmol) was “no such effects”. In test [5] (intra-TG 1 nmol or 5 nmol, n = 6 - 8 mice per group), the acute mechanical hypersensitivity entry is given as “significantly induced profound hypersensitivity to acute mechanical pain”. Also, in test [5] (intra-TG 5 nmol), the “mechanical hypersensitivity, 5 nmol vs 1 nmol” value is “stronger effect than that of 1 nmol”; the “onset of mechanical hypersensitivity” value amounted to 1 h; the “recovery from mechanical hypersensitivity” value was determined as 6 h; the “time at which mechanical hypersensitivity was maintained” value stood at 3 h.
